Measured values reported in ChEMBL document CHEMBL4130345, “Discovery of a series of dihydroquinoxalin-2(1H)-ones as selective BET inhibitors from a dual PLK1-BRD4 inhibitor” (Eur J Med Chem, 2017).

What was measured:
[1] = molecular target: SWI/SNF-related matrix-associated actin-dependent regulator of chromatin subfamily A member 2 (Homo sapiens) (UniProt P51531); experiment: Inhibition of human partial length SMARCA2 (S1377 to Q1486 residues) expressed in Escherichia coli BL21 assessed as residual activity at 1 uM after 1 hr by qPCR method relative to control
[2] = molecular target: T1, Bromodomain-containing protein 4 (Homo sapiens, UniProt O60885); experiment: Inhibition of human partial length BRD4 bromodomain 1 long isoform (N44 to E168 residues) expressed in Escherichia coli BL21 assessed as residual activity at 1 uM after 1 hr by qPCR method relative to control
[3] = Half life in ICR (CD-1) mouse at 10 mg/kg, po; format: ADME, organism-based; settings: in vivo
[4] = molecular target: Bromodomain adjacent to zinc finger domain protein 2B (Homo sapiens) (UniProt Q9UIF8); experiment: Inhibition of human partial length BAZ2B (S2054 to S2168 residues) expressed in Escherichia coli BL21 assessed as residual activity at 1 uM after 1 hr by qPCR method relative to control
[5] = molecular target: T1, Bromodomain-containing protein 4; experiment: Inhibition of JQ1-FITC binding to His6-tagged BRD4-BD1 (unknown origin) expressed in Escherichia coli BL21 (DE3)-codon plus-RIL cells incubated in dark for 4 hrs by fluorescence anisotropy assay
[6] = Plasma concentration in ICR (CD-1) mouse at 10 mg/kg, po after 24 hrs; format: ADME, organism-based
[7] = molecular target: Bromodomain-containing protein 3 (Homo sapiens) (UniProt Q15059); experiment: Inhibition of human partial length BRD3 bromodomain 1 (P24 to E144 residues) expressed in Escherichia coli BL21 assessed as residual activity at 1 uM after 1 hr by qPCR method relative to control
[8] = molecular target: Histone acetyltransferase KAT2B (Homo sapiens) (UniProt Q92831); experiment: Inhibition of human partial length PCAF (G715 to D831 residues) expressed in Escherichia coli BL21 assessed as residual activity at 1 uM after 1 hr by qPCR method relative to control
[9] = molecular target: Bromodomain-containing protein 3 (Homo sapiens) (UniProt Q15059); experiment: Inhibition of human partial length BRD3 bromodomain 2 (G306 to P416 residues) expressed in Escherichia coli BL21 assessed as residual activity at 1 uM after 1 hr by qPCR method relative to control
[10] = molecular target: Peregrin (Homo sapiens) (UniProt P55201); experiment: Inhibition of human partial length BRPF1 (E627 to G740 residues) expressed in Escherichia coli BL21 assessed as residual activity at 1 uM after 1 hr by qPCR method relative to control
[11] = molecular target: Bromodomain-containing protein 9 (Homo sapiens) (UniProt Q9H8M2); experiment: Inhibition of human partial length BRD9 (R130 to V259 residues) expressed in Escherichia coli BL21 assessed as residual activity at 1 uM after 1 hr by qPCR method relative to control
[12] = molecular target: ATPase family AAA domain-containing protein 2B (Homo sapiens) (UniProt Q9ULI0); experiment: Inhibition of human partial length ATAD2B (Q955 to R1082 residues) expressed in Escherichia coli BL21 assessed as residual activity at 1 uM after 1 hr by qPCR method relative to control
[13] = molecular target: Bromodomain-containing protein 1 (Homo sapiens) (UniProt O95696); experiment: Inhibition of human partial length BRD1 (E556 to A688 residues) expressed in Escherichia coli BL21 assessed as residual activity at 1 uM after 1 hr by qPCR method relative to control
[14] = molecular target: Bromodomain and WD repeat-containing protein 1 (Homo sapiens) (UniProt Q9NSI6); experiment: Inhibition of human partial length BRWD1 (A1310 to E1430 residues) expressed in Escherichia coli BL21 assessed as residual activity at 1 uM after 1 hr by qPCR method relative to control
[15] = molecular target: SWI/SNF-related matrix-associated actin-dependent regulator of chromatin subfamily A member 4 (Homo sapiens) (UniProt P51532); experiment: Inhibition of human partial length SMARCA4 (A1448 to S1575 residues) expressed in Escherichia coli BL21 assessed as residual activity at 1 uM after 1 hr by qPCR method relative to control
SWI/SNF-related matrix-associated actin-dependent regulator of chromatin subfamily A member 4 (Homo sapiens), sequence (P51532 whole entry, the tested form may be a part): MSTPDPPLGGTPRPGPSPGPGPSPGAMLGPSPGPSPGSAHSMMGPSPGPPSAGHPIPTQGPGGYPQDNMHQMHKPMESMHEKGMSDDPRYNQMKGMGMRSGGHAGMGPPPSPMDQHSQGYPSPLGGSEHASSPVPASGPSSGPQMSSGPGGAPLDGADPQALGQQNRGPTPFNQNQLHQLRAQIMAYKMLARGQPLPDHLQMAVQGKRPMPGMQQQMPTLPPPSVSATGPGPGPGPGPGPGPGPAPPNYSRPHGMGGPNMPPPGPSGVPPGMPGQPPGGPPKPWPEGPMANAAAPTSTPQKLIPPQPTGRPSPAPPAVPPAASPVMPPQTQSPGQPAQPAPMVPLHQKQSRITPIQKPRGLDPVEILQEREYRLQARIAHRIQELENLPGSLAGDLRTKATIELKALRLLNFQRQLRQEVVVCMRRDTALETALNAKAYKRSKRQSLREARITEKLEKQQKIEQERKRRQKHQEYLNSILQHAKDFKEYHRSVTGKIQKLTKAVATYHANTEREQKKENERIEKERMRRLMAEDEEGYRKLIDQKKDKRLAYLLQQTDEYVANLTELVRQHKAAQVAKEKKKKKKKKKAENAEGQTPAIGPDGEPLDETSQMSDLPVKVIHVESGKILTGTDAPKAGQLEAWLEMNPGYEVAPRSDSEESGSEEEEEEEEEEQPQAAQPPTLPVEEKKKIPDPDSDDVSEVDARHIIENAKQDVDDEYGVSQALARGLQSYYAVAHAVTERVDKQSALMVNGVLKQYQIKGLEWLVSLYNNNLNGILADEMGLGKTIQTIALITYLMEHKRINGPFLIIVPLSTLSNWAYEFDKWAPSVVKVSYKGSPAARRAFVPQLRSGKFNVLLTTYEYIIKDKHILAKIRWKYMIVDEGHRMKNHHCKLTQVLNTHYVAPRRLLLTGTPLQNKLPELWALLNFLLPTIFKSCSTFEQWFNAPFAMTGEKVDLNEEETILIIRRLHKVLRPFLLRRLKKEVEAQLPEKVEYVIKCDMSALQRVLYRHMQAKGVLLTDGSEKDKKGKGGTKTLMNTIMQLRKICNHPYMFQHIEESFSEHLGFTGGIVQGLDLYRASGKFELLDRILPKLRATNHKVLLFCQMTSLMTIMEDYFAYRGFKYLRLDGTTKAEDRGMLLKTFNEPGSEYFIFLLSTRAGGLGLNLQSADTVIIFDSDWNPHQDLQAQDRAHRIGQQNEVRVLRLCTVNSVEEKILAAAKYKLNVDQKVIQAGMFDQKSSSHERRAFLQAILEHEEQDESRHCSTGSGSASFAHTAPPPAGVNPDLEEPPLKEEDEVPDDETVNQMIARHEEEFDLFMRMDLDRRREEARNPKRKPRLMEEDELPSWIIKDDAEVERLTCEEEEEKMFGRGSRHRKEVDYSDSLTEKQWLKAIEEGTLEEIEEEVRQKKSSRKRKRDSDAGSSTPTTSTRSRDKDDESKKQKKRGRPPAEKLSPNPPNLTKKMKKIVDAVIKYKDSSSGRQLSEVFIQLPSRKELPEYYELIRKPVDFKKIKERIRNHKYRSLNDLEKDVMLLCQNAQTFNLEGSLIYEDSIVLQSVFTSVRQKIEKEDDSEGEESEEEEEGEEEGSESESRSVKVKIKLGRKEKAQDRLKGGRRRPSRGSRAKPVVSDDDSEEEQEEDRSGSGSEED

Bromodomain-containing protein 3 (Homo sapiens), sequence (Q15059 2-726 limits assumed): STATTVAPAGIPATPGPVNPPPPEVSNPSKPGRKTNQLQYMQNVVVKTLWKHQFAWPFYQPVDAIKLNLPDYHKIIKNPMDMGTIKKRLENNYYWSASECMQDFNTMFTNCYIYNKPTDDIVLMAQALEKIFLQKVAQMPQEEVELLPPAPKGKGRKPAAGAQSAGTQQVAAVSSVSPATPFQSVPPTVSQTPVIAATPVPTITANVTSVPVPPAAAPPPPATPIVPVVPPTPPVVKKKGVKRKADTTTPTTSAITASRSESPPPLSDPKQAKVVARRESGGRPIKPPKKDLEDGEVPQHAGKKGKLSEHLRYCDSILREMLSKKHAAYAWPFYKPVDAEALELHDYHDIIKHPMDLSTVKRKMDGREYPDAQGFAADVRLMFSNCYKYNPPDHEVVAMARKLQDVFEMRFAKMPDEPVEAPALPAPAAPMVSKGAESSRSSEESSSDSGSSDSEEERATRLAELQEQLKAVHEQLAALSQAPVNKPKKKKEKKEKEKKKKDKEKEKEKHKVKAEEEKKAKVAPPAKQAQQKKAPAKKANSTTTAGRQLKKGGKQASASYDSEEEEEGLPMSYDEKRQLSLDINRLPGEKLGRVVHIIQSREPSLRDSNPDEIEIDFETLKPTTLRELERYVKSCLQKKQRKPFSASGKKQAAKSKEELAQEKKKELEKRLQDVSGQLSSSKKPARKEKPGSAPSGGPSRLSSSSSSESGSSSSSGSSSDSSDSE
Peregrin (Homo sapiens), sequence (P55201 whole entry, the tested form may be a part): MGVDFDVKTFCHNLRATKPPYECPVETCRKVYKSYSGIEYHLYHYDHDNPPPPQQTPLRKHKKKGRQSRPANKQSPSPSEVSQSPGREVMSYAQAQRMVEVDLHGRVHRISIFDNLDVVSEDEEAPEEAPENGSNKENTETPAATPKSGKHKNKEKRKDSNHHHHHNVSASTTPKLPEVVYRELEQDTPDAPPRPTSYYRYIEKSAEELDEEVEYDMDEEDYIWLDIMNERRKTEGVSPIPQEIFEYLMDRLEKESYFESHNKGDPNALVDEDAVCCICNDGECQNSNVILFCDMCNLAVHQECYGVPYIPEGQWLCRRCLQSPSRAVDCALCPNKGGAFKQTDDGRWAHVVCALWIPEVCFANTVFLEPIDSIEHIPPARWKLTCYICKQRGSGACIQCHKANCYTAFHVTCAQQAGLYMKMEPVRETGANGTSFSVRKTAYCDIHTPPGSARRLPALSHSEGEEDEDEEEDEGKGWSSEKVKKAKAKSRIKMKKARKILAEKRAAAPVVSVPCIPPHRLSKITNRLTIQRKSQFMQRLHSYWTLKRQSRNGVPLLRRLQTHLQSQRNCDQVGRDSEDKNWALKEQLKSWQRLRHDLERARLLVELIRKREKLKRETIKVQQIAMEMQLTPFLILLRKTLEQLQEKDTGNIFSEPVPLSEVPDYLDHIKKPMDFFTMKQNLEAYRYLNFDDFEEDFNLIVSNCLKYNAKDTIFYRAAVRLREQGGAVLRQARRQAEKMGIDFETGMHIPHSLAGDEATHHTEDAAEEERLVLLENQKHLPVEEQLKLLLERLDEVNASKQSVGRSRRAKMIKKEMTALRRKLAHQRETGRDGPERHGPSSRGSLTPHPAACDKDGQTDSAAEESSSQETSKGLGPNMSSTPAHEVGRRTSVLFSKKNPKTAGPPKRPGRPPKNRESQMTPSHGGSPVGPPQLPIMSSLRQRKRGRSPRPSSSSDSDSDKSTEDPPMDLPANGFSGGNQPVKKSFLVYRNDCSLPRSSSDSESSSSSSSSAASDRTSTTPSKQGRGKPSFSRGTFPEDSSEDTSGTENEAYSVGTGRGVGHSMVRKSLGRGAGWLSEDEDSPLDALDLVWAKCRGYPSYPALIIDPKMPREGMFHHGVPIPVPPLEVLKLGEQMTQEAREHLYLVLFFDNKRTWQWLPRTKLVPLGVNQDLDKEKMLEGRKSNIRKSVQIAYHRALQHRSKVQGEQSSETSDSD
Bromodomain-containing protein 1 (Homo sapiens), sequence (O95696 whole entry, the tested form may be a part): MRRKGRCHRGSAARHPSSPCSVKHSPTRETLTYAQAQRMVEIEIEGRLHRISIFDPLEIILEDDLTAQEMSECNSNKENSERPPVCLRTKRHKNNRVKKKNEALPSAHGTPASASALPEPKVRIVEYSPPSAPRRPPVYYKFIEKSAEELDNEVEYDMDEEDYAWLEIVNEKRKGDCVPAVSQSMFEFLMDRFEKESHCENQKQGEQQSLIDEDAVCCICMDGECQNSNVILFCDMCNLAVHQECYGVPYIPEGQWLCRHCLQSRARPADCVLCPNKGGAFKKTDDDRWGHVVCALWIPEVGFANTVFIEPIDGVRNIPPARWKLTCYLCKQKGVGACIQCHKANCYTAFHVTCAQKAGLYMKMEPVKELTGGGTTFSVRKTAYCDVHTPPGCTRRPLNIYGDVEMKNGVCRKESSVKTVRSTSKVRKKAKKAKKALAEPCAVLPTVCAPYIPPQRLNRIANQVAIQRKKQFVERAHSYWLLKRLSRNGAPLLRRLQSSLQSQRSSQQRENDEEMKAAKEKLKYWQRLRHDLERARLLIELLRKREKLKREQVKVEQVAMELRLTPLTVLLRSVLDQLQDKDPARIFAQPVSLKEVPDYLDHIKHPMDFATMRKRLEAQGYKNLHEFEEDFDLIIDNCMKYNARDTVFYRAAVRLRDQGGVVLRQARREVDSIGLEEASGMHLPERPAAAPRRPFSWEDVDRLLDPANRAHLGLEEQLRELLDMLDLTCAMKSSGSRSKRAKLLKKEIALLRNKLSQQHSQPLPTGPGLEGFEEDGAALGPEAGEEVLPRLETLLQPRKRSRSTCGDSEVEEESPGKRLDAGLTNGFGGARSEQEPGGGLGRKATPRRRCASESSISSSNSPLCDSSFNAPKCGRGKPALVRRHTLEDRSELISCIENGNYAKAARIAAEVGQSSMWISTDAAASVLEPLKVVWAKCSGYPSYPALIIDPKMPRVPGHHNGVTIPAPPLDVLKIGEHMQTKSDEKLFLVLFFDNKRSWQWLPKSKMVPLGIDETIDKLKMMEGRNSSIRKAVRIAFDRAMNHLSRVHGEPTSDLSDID

Activity [1]: 73% | Activity [2]: 1.7% | half-life [3]: 134 min | Activity [4]: 82% | IC50 [5]: 45 nM | concentration at 24 h [6]: < 0.3 ng/mL | Activity [7]: 0.1% | Activity [8]: 96% | Activity [9]: 0.3% | Activity [10]: 100% | Activity [11]: 77% | Activity [12]: 100% | Activity [13]: 57% | Activity [14]: 73% | Activity [15]: 95%
Compound: Cc1ccc([C@H](C)Nc2ccc3c(c2)N(C2CC2)[C@H](C)C(=O)N3C)c(C)c1
